The results in this text go back to patent publication US20230203485A1, “METHODS FOR MODULATING MHC-I EXPRESSION AND IMMUNOTHERAPY USES THEREOF” (Dana-Farber Cancer Institute, Inc., priority 2020, published 2023).

Assay [1] relates to HLA-I and IFN pathway proteins. Kind of assay: Whole proteome analysis of MCC cell lines with and without IFN-γ. The class given is cell-based, human. How it is done: Protein expression of MCC cell lines was assessed. Briefly, cell pellets of MCC cell lines with and without IFN-γ treatment were lysed in 8M Urea and digested to peptides using LysC and Trypsin (Promega). 400 μg peptides were labeled with TMT10 reagents (Thermo Fisher, 126-MCC-290, 127N-MCC-350_IFN, 127C MCC-275_IFN, 128N MCC-275, 128C MCC-350, 129N_MCC-301_IFN, 129C-MCC-277_IFN, 130N-MCC-290_IFNy, 130C MCC-277, 131 MCC-301) and then pooled for subsequent fractionation and analysis. Pooled peptides were separated into 24 fractions using offline high pH reversed phase fractionation. 1 μg per fraction was loaded onto an analytical column (20-30 cm with 1.9 μm C18 Reprosil beads [Dr. Maisch HPLC GmbH], packed in-house, PicoFrit 75 μM inner diameter, 10 μM emitter [New Objective]). Peptides were eluted with a linear gradient (EasyNanoLC 1000 or 1200, Thermo Scientific) ranging from 6-30% Buffer B (either 0.1% formic acid or 0.5% AcOH and 80% or 90% acetonitrile) over 84 min 30-90% Buffer B over 9 min, and held at 90% Buffer B for 5 min at 200 nl/min. During data dependent acquisition, peptides were analyzed on a Fusion Lumos (Thermo Scientific). Full scan MS was acquired at a 60,000 from 300-1,800 m/z. AGC target was set to 4e5 and 50 ms. […]

Assay [2] deals with HLA I surface expression on MCC cell lines. Kind of assay: Flow cytometry for HLA-I surface expression (anti-HLA-ABC, W6/32) in MCC lines at baseline and after interferon or MEK inhibitor treatment. The class given is cell-based, human. The procedure: The overlaid black line plot indicates the percentage of tumor cells that stained positive for HLA-I by IHC of the corresponding original tumor (right y-axis).
Representative histogram plots show cells stained with anti-HLA class I or isotype antibodies. The experiment was performed in the MCPyV− line MCC-290 (left) and the MCPyV+ line MCC-301 (right).
Cells were dissociated with Versene and incubated with 5 μL Human TruStain FcX (Fc receptor blocking solution; Biolegend, Dedham, Mass.) per million cells in […] at room temperature for 10 min. Fluorochrome-conjugated antibodies or respective isotype controls were immediately added and incubated for another 30 min at 4° C. Cells were then washed once with PBS and resuspended in PBS containing 4% paraformaldehyde and analyzed on LSR Fortessa cytometers. Additional steps were described for individual experiments as below.

Consider “IFN-γ: interferon gamma used to stimulate MCC cell lines”, for which the “class I upregulation in matched proteomes” value in assay [1] (4 MCC lines) is given as “confirmed”. In addition, in assay [1] (MCC-350 (non-IFN-γ-responsive), including STAT1 phosphorylation), the “HLA-I and IFN pathway upregulation at the protein level” value is “global lack of IFN-induced HLA-I and IFN pathway upregulation”.

Regarding “IFN-y: type II interferon, recombinant human, used to treat MCC cells”, the “HLA I surface expression, median fold increase by MFI” value in assay [2] (IFN-y exposure, the 8 inducible of 11 MCC lines, pan-class I anti-HLA-ABC antibody, median) is given as 5.7 fold. The “HLA I surface expression, range of fold increase by MFI” value in assay [2] (IFN-y exposure, the 8 inducible of 11 MCC lines, range) is 2.5-12.4 fold. Moreover, the “HLA I surface expression response” value in assay [2] (three lines: MCC-336, -350, -358) was “not responsive”.
